Reference: patent US10849896B2, “Sortilin-binding small molecules for increasing glucose uptake” (University of South Florida, priority 2015, dated 2020)

Columns and labels:
Type in all cases: cell-based, mouse
sortilin = experiment: Western blot for sortilin expression in treated 3T3L1 cells; conditions: 500 nM, added day 3 of differentiation, maintained to day 8; whole cell lysate
Description: (§1) 2-(3,5-Dioxo-4-azatricyclo[5.2.1.0˜2,6˜]dec-8-en-4-yl)-4-methylpentanoic acid and 4-[(3,4-dichlorophenyl)amino]-3-(3-methylbenzyl)-4-oxobutanoic acid were used to treat 3T3L1 cells at 500 nM concentration on day 3 of differentiation and maintained in culture up to day 8 when the cells mature into adipocytes with well-developed lipid bodies. Whole cell lysate was isolated and western blot analysis was performed using anti-sortilin antibody. […] To determine the compounds effect sortilin gene expression, 3T3L1 cells were treated as above and total RNA was isolated. RT-PCR was performed using sortilin primers.

3T3L1 cells = experiment: [3-H]-deoxy-2-D-Glucose uptake in 3T3L1 adipocytes; conditions: 500 nM; for glucose uptake: added day 3 of differentiation, maintained to day 8, without insulin; for glucose uptake with addition of insulin: day 3 to day 8, 100 nM insulin for 30 minutes
Description: To examine glucose uptake, 3T3L1 cells were treated on day 3 of differentiation with either 2-(3,5-dioxo-4-azatricyclo[5.2.1.0(2,6)]dec-8-en-4-yl)-4-methylpentanoic acid or 4-[(3,4-dichlorophenyl)amino]-3-(3-methylbenzyl)-4-oxobutanoic acid at 500 nM concentration and maintained in culture up to day 8 when the cells mature into adipocytes with well-developed lipid bodies. After 100 nM insulin was added to cells and maintained for 30 minutes, [3-H]-deoxy-2-D-Glucose uptake was measured.

sortilin mRNA = experiment: RT-PCR for sortilin mRNA in treated 3T3L1 cells; conditions: 500 nM, added day 3 of differentiation, maintained to day 8; total RNA
Description: as §1

SMILES: CC(C)CC(C(=O)O)N1C(=O)C2C3C=CC(C3)C2C1=O (centres unmarked) [2-(3,5-dioxo-4-azatricyclo[5.2.1.0(2,6)]dec-8-en-4-yl)-4-methylpentanoic acid]
- sortilin expression (western blot, anti-sortilin antibody) (sortilin): increase in sortilin expression
- glucose uptake (3T3L1 cells): increase in glucose uptake
- glucose uptake with addition of insulin (3T3L1 cells): further increased
- mRNA levels of sortilin (RT-PCR) (sortilin mRNA): not affected

SMILES: Cc1cccc(CC(CC(=O)O)C(=O)Nc2ccc(Cl)c(Cl)c2)c1 (centres unmarked) [4-[(3,4-dichlorophenyl)amino]-3-(3-methylbenzyl)-4-oxobutanoic acid]
- sortilin expression (western blot, anti-sortilin antibody) (sortilin): increase in sortilin expression
- glucose uptake (3T3L1 cells): increase in glucose uptake
- glucose uptake with addition of insulin (3T3L1 cells): further increased
- mRNA levels of sortilin (RT-PCR) (sortilin mRNA): not affected
